Measurements: patent US5756423A, “Method of controlling plants by inhibition of farnesyl pyrophosphate synthase” (Zeneca Limited, priority 1997, dated 1998)
Where two headings read alike, the source gives them in different places.

Tests used:
[1] = tested on: farnesyl pyrophosphate synthase in daffodil chromoplasts; assay: inhibition of farnesyl pyrophosphate synthase in daffodil chromoplasts (14C-isopentenyl pyrophosphate incorporation); assay type: biochemical, Narcissus pseudonarcissus; details: unit inferred, IC50 values in nM, read-out: IC50
Procedure: The IC50 value may be determined as follows. Daffodil chromoplasts are diluted to a volume of 500 microliters in a buffer containing 0.5M sucrose, 3 mM MgCl2, 1 mM ethylenediaminetetraacetic acid, 20 mM N-tris[hydroxymethyl]methyl-2-aminoethanesulfonic acid, […] N-[2-hydroxyethyl]-piperazine-N'-[2-ethanesulfonic acid], 5 mM L-cysteine, 10 mM sodium fluoride, and 0.1% bovine serum albumin at pH 7.7. The inhibitor to be tested may be dissolved in water other suitable solvent and then added to the reaction mixture. The assay is started by the addition of ^14 C-labeled isopentenyl pyrophosphate (52 Ci/mol) to give a final concentration in the assay of about 3 micromolar. The mixture is incubated at 30° C. with gentle agitation for a period of about 30 min. The reaction may be stopped by the addition of 0.5 mL of saturated NaCl and 2 mL of n-butanol saturated with water. After thorough mixing, the turbid suspensions are centrifuged briefly to separate the layers, and 1 mL of the bright yellow upper butanol layer is added to 10 mL of a suitable scintillation fluid which gives a single phase. The butanol soluble radioactivity is then measured in a scintillation counter.
In addition, the problem of variable quenching differences among different experiments can be essentially eliminated by determining the incorporation of radioactivity relative to controls. Each set of experiments requires two control tubes identical to the test samples except that they contain no inhibitor. One of these is quenched immediately (TO sample) and one is quenched at the end of the normal incubation period (T100 sample).
For each concentration of inhibitor examined the % residual activity is determined from the formula [formula]
Tightly closed daffodil flowers (Narcissus pseudonarcissus) were allowed to open at room temperature. […] Coronae were placed in twice their weight of isolation buffer consisting of 67 mM potassium phosphate, 0.74M sucrose, 5 mM MgCl2, and 0.2% polyvinyl-pyrrolidone at pH 7.6 and were disrupted by 30 seconds of homogenization at high speed in a Waring-type blender. The mixture was filtered through several layers of cheesecloth and 2 layers of 100 micron nylon mesh, and the resulting filtrate was centrifuged at 1000×g for 10 minutes. The pellet was discarded and supernatant was centrifuged at 22,000×g for 20 minutes. […] This solution was centrifuged at 22,000×g for 20 minutes to give orange pellets which were suspended in a buffer of 100 mM tris(hydroxymethyl)aminomethane at pH 7.6 containing 5mM MgCl2 and 2 mM dithiothreitol (1 ml per 10 coronae). This solution was frozen in liquid nitrogen and then stored at -80° C.
Thawed daffodil chromoplasts (100-150 microliters) were diluted to a final volume of 500 microliters in a buffer containing 0.5M sucrose, 3 mM MgCl2, 1 mM ethylenediaminetetraacetic acid, 10 mM N-[2-hydroxyethyl]piperazine-N^1 -[2-ethanesulfonic acid], 5 mM L-cysteine, 10 mM sodium fluoride, and 0.1% bovine serum albumin at pH 7.7. The inhibitor to be tested was dissolved in water or other suitable solvent and was added to the reaction mixture. The assay was started by the addition of ^14 C-labeled isopentenyl pyrophosphate (52 Ci/mol) to give a final concentration in the assay of about 3 micromolar. The mixture was incubated at 30° C. with gentle agitation for a period of about 30 minutes. The reaction was stopped by the addition of 0.5 mL of saturated NaCl and 2 mL of n-butanol saturated with water. After thorough mixing, the turbid suspensions were centrifuged briefly to separate the layers, and 1 mL of the bright yellow upper butanol layer was added to 10 mL of a suitable scintillation fluid which gave a single phase. The butanol soluble radioactivity was then measured in a scintillation counter. Each set of experiments required two control tubes identical to the test samples except that they contain no inhibitor.

[2] = tested on: wild mustard (Brassica kaber), also known as Sinapis arvensis (SINAR); assay: post-emergent herbicidal test, wild mustard; assay type: in vivo; details: Brassica, post-emergence, read-out: SINAR percent control; for pest or weed control at 4000 g/ha: 4.0 kg/ha
From the text: (§1) Seeds of several different weed species were planted in sandy loam soil containing only trace organic matter. Propagules were sown in individuals rows using one species per row across the width of an aluminum flat (19.5×9.5×6 cm). The grass weeds planted were green foxtail (Setaria viridis) ("SETVI"), wild oat (Avena fatua) ("AVEFA"), barnyard grass (Enchinochloa crusgalli) ("ECHCG"). Broadleaf weeds utilized were wild mustard (Brassica kaber), also known as Sinapis arvensis, ("SINAR"), velvetleaf (Abutilon theophrasti) ("ABUTH") and morningglory (Ipomoea spp.) ("IPOSS"). Additionally, yellow nutsedge (Cyperus esculentus) ("CYPES"), nutlets were sown. Seeding depths ranged from 1.0 to 1.5 cm and plant densities ranged from 3 to 25 plants per row depending on individual plant species.
(§2) The flats were placed into a greenhouse and watered overhead by sprinkling. The greenhouse environmental systems provided the plants with natural and artificial (via metal halide lamps) lighting to attain 14 hours of light per day. Day and night temperatures were maintained at 29° and 21° C. respectively. The plants were grown for 10 to 12 days (or to the appropriate growth stage) prior to compound application. Grasses were sprayed at a 3 to 4 leaf stage and broadleaves at a 1 to 2 leaf stage. Yellow nutsedge was 5 to 7 cm tall at application.
(§3) Solutions of the test compounds were prepared by weighing out 18.8 and 74.7 mg for 1 and 4 kg/ha applications respectively, of the test compound into a 60 ml wide-mouth bottle, then dissolving the compound in 14.0 ml of deionized water containing 0.5% v/v Tween 20' (polyoxyethylene sorbitan monolaurate emulsifier) as a surfactant. Additional solvents, not exceeding 2 ml (15% of spray volume), were used if needed to dissolve the compound.
(§4) The plants were sprayed inside an enclosed linear spray table with the nozzle set at 30.5 cm (12 inches) above the foliage.
(§5) Treated plants were then returned to a greenhouse and watered daily without wetting the foliage.
(§6) The degree of weed control was evaluated 17-21 days after application and recorded as percentage of control as compared to the growth of the same species in an untreated control flat of the same. Percent control is the total injury to the plants due to all factors including: inhibited emergence, stunting, malformation, chlorosis and other types of plant injury. The control ratings range from 0 to 100 percent, where 0% represents no effect with growth equal to the untreated control and where 100% represents complete kill.

[3] = tested on: wild oat (Avena fatua) (AVEFA); assay: post-emergent herbicidal test, wild oat; assay type: in vivo; details: Avena fatua, post-emergence, read-out: AVEFA percent control; for pest or weed control at 4000 g/ha: 4.0 kg/ha
From the text: as §1, §2, §3, §4, §5, §6

[4] = tested on: green foxtail (Setaria viridis) (SETVI); assay: post-emergent herbicidal test, green foxtail; assay type: in vivo; details: Setaria viridis, post-emergence, read-out: SETVI percent control; for pest or weed control at 4000 g/ha: 4.0 kg/ha
From the text: as §1, §2, §3, §4, §5, §6

[5] = tested on: morningglory (Ipomoea spp.) (IPOSS); assay: post-emergent herbicidal test, morningglory; assay type: in vivo; details: Ipomoea, post-emergence, read-out: IPOSS percent control; for pest or weed control at 4000 g/ha: 4.0 kg/ha
From the text: as §1, §2, §3, §4, §5, §6

[6] = tested on: velvetleaf (Abutilon theophrasti) (ABUTH); assay: post-emergent herbicidal test, velvetleaf; assay type: in vivo; details: Abutilon theophrasti, post-emergence, read-out: ABUTH percent control; for pest or weed control at 4000 g/ha: 4.0 kg/ha
From the text: as §1, §2, §3, §4, §5, §6

[7] = tested on: yellow nutsedge (Cyperus esculentus) (CYPES); assay: post-emergent herbicidal test, yellow nutsedge; assay type: in vivo; details: Cyperus, post-emergence, read-out: CYPES percent control; for pest or weed control at 4000 g/ha: 4.0 kg/ha
From the text: as §1, §2, §3, §4, §5, §6

[8] = tested on: barnyard grass (Enchinochloa crusgalli) (ECHCG); assay: post-emergent herbicidal test, barnyard grass; assay type: in vivo; details: Echinochloa crus-galli, post-emergence, read-out: ECHCG percent control; for pest or weed control at 4000 g/ha: 4.0 kg/ha
From the text: as §1, §2, §3, §4, §5, §6

[9] = post-emergent, 17-21 days after application
[10] = post-emergent, 1.0 kg/ha (*), 17-21 days after application

Compound | IC50 ([1]; Table I) [nM] | IC50 ([1]; Table II) [nM] | pest or weed control at 4000 g/ha [2, 9] [%] | pest or weed control at 4000 g/ha [3, 9] [%] | pest or weed control at 4000 g/ha [4, 9] [%] | pest or weed control at 4000 g/ha [5, 9] [%] | pest or weed control at 4000 g/ha [6, 9] [%] | pest or weed control at 4000 g/ha [7, 9] [%] | pest or weed control at 4000 g/ha [8, 9] [%] | pest or weed control at 1000 g/ha [2, 10] [%] | pest or weed control at 1000 g/ha [3, 10] [%] | pest or weed control at 1000 g/ha [4, 10] [%] | pest or weed control at 1000 g/ha [5, 10] [%] | pest or weed control at 1000 g/ha [6, 10] [%] | pest or weed control at 1000 g/ha [7, 10] [%] | pest or weed control at 1000 g/ha [8, 10] [%] | other results
CC1CCC(C)N1CC(P(=O)(O)O)P(=O)(O)O (stereo not drawn) [Compound 11] | 650 | 610 | 95 | 30 | 50 | 30 | 0 | 0 | 50 | – | – | – | – | – | – | – | –
CC(C)CNCC(P(=O)(O)O)P(=O)(O)O [Compound 12] | 150 | 150 | 100 | 100 | 98 | 90 | 98 | 70 | 98 | – | – | – | – | – | – | – | –
CONCC(P(=O)(O)O)P(=O)(O)O [Compound 15] | 6310 | 6310 | – | – | – | – | – | – | – | – | – | – | – | – | – | – | pest or weed control at 1000 g/ha [2]: 0%; pest or weed control at 1000 g/ha [3]: 0%; pest or weed control at 1000 g/ha [4]: 0%; pest or weed control at 1000 g/ha [5]: 0%; pest or weed control at 1000 g/ha [6]: 0%; pest or weed control at 1000 g/ha [7]: 0%; pest or weed control at 1000 g/ha [8]: 0%
C=CCCNCC(P(=O)(O)O)P(=O)(O)O [Compound 16] | 316 | 316 | – | – | – | – | – | – | – | 100 | 80 | 90 | 10 | 10 | 20 | 100 | –
CCCCCCNCC(P(=O)(O)O)P(=O)(O)O [Compound 17] | 316 | 316 | – | – | – | – | – | – | – | 50 | 75 | 60 | 10 | 0 | 0 | 50 | –
C=CCNCC(P(=O)(O)O)P(=O)(O)O [Compound 18] | 26 | 26 | – | – | – | – | – | – | – | – | – | – | – | – | – | – | pest or weed control at 1000 g/ha [2]: 100%; pest or weed control at 1000 g/ha [3]: 100%; pest or weed control at 1000 g/ha [4]: 98%; pest or weed control at 1000 g/ha [5]: 70%; pest or weed control at 1000 g/ha [6]: 30%; pest or weed control at 1000 g/ha [7]: 50%; pest or weed control at 1000 g/ha [8]: 98%
CCCN(CCC)CC(P(=O)(O)O)P(=O)(O)O [Compound 19] | 32 | 32 | – | – | – | – | – | – | – | 100 | 100 | 98 | 60 | 100 | 10 | 100 | –

Second part, led by results:

IC50 ([1]; Table I) [nM] | IC50 ([1]; Table II) [nM] | Compound | pest or weed control at 4000 g/ha [2, 9] [%] | pest or weed control at 4000 g/ha [3, 9] [%] | pest or weed control at 4000 g/ha [4, 9] [%] | pest or weed control at 4000 g/ha [5, 9] [%] | pest or weed control at 4000 g/ha [6, 9] [%] | pest or weed control at 4000 g/ha [7, 9] [%] | pest or weed control at 4000 g/ha [8, 9] [%] | pest or weed control at 1000 g/ha [2, 10] [%] | pest or weed control at 1000 g/ha [3, 10] [%] | pest or weed control at 1000 g/ha [4, 10] [%] | pest or weed control at 1000 g/ha [5, 10] [%] | pest or weed control at 1000 g/ha [6, 10] [%] | pest or weed control at 1000 g/ha [7, 10] [%] | pest or weed control at 1000 g/ha [8, 10] [%] | other results
209 | 209 | O=P(O)(O)C(O)(C1CCCCN1)P(=O)(O)O (stereo not drawn) [Compound 9] | 100 | 60 | 100 | 30 | 30 | 15 | 30 | – | – | – | – | – | – | – | –
83 | 83 | CC1CCCCN1CC(P(=O)(O)O)P(=O)(O)O (stereo not drawn) [Compound 10] | 100 | 100 | 85 | 90 | 50 | 5 | 85 | – | – | – | – | – | – | – | –
240 | 240 | CCN(CC)CC(P(=O)(O)O)P(=O)(O)O [Compound 13] | – | – | – | – | – | – | – | 95 | 40 | 80 | 10 | 15 | 5 | 40 | –
347 | 347 | CCCCNCC(P(=O)(O)O)P(=O)(O)O [Compound 14] | – | – | – | – | – | – | – | 85 | 70 | 95 | 10 | 20 | 15 | 90 | –
